According to article PMC11211886 (Frontiers in Pharmacology, 2024):
pIC50: −log10 of the molar value.

Assays:
[1] = Caco-2 bidirectional transport permeability; assay type: in vitro ADME, human; conditions: human
Procedure: The passage number of cells used in this study was 39. Non-specific binding to the device surfaces and the aqueous solubility of test compounds were tested before the transport experiment. […] The integrity of the monolayer was estimated by measuring transepithelial electrical resistance (TEER). Only the monolayers with TEER over 150 Ω were used for the studies.

CYP2B6 mRNA = assay: CYP induction in human hepatocytes, CYP2B6 mRNA (RT-PCR); conditions: human five, Gene expression Fold Induction, CYP2B6, donor seven, 1000 µM
Procedure: (§1) […] […] […] Enzyme activity for each CYP isoform was reported as a fold change over vehicle control and the percent of positive control (detailed calculation in Supplementary 1.1). Hepatocytes were harvested with a lysis buffer from RNeasy 96 Kit (Qiagen Inc., Germantown, MD, USA) to isolate RNA, which was analyzed by real-time quantitative polymerase chain reaction (RT-PCR). […] Emax (the maximal observed induction) and EC50 (the concentration that supports half-maximal induction) were estimated by non-linear regression of fold increase in CYP mRNA expression versus concentration plots.
(§2) % of positive control = [(fold change in treated sample)-1] / [(fold change in positive control)-1] × 100
(§3) Based on the gene expression, a minimum of 4-fold increase of positive control compared to vehicle control, a minimum of 2-fold increase of the test article compared vehicle control and increased in a concentration-dependent manner was considered as the cutoff for a positive signal in in vitro induction assay.

CYP2C9 mRNA = assay: CYP induction in human hepatocytes, CYP2C9 mRNA (RT-PCR); conditions: for Gene expression Percent of PC (%): 25 µM
Procedure: as §1, §2, §3

CYP2C19 = assay: CYP induction in human hepatocytes, CYP2C19 enzyme activity; assay type: in vitro ADME; conditions: 25 µM
Procedure: as §1
(§4) The fold of vehicle control and the percent of positive control were calculated with the formulas below:
(§5) Fold of vehicle control = CYPs activity of test compound (or positive control) treated sample / CYPs activity of vehicle control treated sample
as §2
(§6) Based on the enzyme activity, a minimum of 2-fold increase compared to vehicle control for the positive control and ≥40% of the positive control for the test article was considered as the cutoff for a positive signal in in vitro induction assay.

CYP2C9 = assay: in vitro; conditions: human; for fold induction at 48 h, 25 µM: Enzyme activity Fold Induction
Procedure: as §1, §4, §5, §2, §6

CYP2C8 = assay: in vitro; conditions: human; for fold induction at 48 h, 25 µM: Enzyme activity Fold Induction
Procedure: as §1, §4, §5, §2, §6

CYP2C8 mRNA = assay: in vitro; conditions: human; for fold induction at 48 h, 25 µM: Gene expression Fold Induction
Procedure: as §1, §2, §3

OATP1B3 = target: T1, OATP1B3 (Homo sapiens, UniProt Q9NPD5); assay: OATP1B3 inhibition, β-estradiol 17-(β-D-glucuronide) uptake in transfected HEK293 cells
T1 sequence (Q9NPD5 1-702): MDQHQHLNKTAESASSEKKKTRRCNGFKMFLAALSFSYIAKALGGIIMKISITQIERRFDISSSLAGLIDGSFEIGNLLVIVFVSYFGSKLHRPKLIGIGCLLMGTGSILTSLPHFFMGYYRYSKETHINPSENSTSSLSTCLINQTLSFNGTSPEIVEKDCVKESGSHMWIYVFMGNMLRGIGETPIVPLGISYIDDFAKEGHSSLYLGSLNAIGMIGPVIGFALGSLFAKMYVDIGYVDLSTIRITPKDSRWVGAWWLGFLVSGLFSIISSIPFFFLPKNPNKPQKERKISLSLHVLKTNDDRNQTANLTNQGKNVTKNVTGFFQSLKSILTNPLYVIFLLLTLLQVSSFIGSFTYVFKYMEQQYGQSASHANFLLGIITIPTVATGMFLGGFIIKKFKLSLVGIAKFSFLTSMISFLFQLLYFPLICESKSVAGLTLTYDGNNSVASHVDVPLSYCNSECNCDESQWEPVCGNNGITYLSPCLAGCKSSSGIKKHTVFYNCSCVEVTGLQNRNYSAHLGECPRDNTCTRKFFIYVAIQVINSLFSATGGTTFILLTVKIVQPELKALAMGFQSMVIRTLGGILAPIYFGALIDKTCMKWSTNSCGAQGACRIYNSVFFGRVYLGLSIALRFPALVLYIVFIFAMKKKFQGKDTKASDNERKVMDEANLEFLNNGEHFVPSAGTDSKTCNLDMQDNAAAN
Procedure: (§7) The pre-incubation solutions were removed, and incubation solutions containing the inhibitors and probe substrates (or transport buffer containing an equal volume of vehicle control and probe substrates) were added and incubated at 37°C for 2 min (5 min for OATP1B3). The probe substrate for OAT1 was 4-aminohippuric acid (10 μM), for OAT3 was estrone 3-sulfate (10 μM), for OCT2 was metformin (100 μM), for OATP1B1 was β-estradiol 17-(β-D-glucuronide) (5 μM), for OATP1B3 was β-estradiol 17-(β-D-glucuronide) (10 μM), and for MATE1 and MATE2-K was tetraethylammonium (10 μM). After incubation, cells were washed three times with ice-cold transport buffer (25 mM HEPES, pH 7.4, pH 8.0 for overexpressing MATE1 and MATE2-K HEK293 cells) and lysed in distilled water. The concentrations of probe substrates were determined by LC-MS/MS, and a BCA Kit (Solarbio ®Life Sciences, Beijing, China) was used to determine the protein content in the cell lysate.
(§8) where C is the concentration of the drug in the cell lysate (nM), P is the protein concentration of the cell lysate (mg/mL), and T is the incubation time (minute). Uptake ratetest compound is the uptake rate of the substrate in the presence of the test compound. Uptake ratevehicle control is the uptake rate of the substrate in the presence of the vehicle control. Uptake ratepassive is the uptake rate of the substrate in the presence of the positive inhibitor at the top test concentration.

OATP1B1 = target: T2, OATP1B1 (Homo sapiens, UniProt Q9Y6L6); assay: OATP1B1 inhibition, β-estradiol 17-(β-D-glucuronide) uptake in transfected HEK293 cells
T2 sequence (Q9Y6L6 1-691): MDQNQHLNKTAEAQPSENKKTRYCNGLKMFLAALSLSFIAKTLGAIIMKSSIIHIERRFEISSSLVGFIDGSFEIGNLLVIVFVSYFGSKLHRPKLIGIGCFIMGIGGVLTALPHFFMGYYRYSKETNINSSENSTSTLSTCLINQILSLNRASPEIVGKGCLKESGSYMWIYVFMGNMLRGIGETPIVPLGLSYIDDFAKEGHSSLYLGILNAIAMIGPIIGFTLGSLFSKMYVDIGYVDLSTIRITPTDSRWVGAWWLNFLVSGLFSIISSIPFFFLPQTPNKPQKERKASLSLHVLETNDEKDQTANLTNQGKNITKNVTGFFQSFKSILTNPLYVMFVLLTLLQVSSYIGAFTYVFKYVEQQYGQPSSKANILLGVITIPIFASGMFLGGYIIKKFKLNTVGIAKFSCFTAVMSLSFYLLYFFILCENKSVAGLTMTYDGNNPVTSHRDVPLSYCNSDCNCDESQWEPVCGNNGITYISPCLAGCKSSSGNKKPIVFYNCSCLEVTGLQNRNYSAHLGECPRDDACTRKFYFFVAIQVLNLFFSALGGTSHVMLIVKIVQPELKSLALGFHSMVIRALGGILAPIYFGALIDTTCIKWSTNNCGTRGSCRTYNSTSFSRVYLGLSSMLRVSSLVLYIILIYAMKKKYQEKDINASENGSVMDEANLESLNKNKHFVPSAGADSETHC
Procedure: as §7, §8

BCRP = target: T3, BCRP (Homo sapiens, UniProt Q9UNQ0); assay: in vitro; conditions: Caco-2
T3 sequence (Q9UNQ0 1-655): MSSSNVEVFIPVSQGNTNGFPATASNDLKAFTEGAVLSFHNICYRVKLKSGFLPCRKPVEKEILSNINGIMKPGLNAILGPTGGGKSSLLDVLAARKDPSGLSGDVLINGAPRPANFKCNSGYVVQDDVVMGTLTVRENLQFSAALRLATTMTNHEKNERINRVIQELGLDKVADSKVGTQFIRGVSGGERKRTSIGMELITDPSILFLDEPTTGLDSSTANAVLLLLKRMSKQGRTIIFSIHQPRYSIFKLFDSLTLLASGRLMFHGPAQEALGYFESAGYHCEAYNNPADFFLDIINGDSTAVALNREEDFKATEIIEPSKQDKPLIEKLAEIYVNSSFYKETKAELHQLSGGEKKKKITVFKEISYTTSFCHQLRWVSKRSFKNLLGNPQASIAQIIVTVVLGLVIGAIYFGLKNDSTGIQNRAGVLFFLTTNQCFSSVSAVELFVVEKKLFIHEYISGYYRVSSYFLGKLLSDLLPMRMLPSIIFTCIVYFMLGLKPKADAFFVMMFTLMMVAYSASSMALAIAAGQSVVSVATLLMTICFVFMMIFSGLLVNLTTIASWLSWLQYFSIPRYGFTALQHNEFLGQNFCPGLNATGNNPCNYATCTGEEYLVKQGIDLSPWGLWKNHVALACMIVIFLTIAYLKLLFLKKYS
Description: (§9) The experimental conditions were similar to those of the permeability study.

P-gp = P-gp (Homo sapiens, UniProt P08183); assay: in vitro; conditions: human, Caco-2
P-gp, sequence (P08183 whole entry): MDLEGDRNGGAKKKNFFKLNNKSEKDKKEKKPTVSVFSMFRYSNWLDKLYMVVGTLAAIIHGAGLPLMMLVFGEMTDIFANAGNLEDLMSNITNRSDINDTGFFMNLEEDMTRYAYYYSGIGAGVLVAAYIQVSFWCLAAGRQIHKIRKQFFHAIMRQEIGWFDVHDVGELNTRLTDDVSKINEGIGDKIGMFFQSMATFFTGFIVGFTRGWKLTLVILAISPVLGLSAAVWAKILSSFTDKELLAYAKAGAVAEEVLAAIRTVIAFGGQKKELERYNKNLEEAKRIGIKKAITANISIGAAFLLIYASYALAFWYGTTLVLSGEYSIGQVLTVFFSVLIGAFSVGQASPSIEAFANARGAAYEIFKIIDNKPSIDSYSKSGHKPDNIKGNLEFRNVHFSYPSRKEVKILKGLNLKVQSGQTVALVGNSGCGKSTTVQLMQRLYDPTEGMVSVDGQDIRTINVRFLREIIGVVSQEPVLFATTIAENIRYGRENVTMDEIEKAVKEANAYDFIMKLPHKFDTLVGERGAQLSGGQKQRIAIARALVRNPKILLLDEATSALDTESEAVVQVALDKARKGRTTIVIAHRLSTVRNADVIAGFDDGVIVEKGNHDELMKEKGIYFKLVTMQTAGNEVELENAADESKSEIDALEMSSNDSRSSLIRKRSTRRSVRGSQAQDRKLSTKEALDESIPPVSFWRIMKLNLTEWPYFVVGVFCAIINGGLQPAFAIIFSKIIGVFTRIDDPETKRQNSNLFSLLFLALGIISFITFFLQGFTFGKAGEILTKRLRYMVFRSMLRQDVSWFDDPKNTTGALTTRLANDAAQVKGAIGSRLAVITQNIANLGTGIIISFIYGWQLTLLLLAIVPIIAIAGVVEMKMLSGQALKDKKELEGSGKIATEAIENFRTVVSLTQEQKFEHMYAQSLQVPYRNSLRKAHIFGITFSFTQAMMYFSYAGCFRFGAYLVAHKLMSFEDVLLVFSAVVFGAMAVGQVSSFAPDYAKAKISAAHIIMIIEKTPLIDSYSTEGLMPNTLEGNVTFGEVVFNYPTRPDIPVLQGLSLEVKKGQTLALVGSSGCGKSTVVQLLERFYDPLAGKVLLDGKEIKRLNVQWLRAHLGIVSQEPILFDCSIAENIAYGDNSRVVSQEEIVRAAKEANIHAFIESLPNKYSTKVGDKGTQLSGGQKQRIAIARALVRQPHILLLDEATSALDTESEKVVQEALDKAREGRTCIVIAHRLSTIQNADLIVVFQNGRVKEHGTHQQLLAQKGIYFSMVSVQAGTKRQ
Description: as §9

CYP1A2 mRNA = assay: in vitro; conditions: human; for fold induction at 48 h, 50 µM: Gene expression Fold Induction
Procedure: as §1, §2, §3

CYP1A2 = assay: in vitro; conditions: human; for fold induction at 48 h, 50 µM: Enzyme activity Fold Induction
Procedure: as §1, §4, §5, §2, §6

[2] = among marketed PI3Kδ inhibitors; ref FDA, 2014; FDA, 2017, 2018, 2021; cited from earlier work
[3] = ref FDA, 2021; cited from earlier work
[4] = clinical trials; ref FDA, 2014; FDA, 2017, 2018, 2021; cited from earlier work

COCCc1ccc(OCC(O)CNC(C)C)cc1 (stereo not drawn) [Metoprolol, reference compound]
Papp A→B at 60 min, 10 µM [1]: 39.4 ×10⁻⁶ cm/s
Papp B→A at 60 min, 10 µM [1]: 36.8 ×10⁻⁶ cm/s
efflux ratio at 60 min, 10 µM [1]: 0.935

CCC1(c2ccccc2)C(=O)NC(=O)NC1=O [Phenobarbital]
fold induction at 48 h, 1000 µM (CYP2B6 mRNA): 9.45

CCOC(=O)c1ncn2c1CN(C)C(=O)c1cc(F)ccc1-2 [Flumazenil]
Gene expression Percent of PC (%) (CYP2C9 mRNA; CYP2C9, donor eight): 12.1%
Gene expression Percent of PC (%) (CYP2C9 mRNA; CYP2C9, donor four): 19.7%
Gene expression Percent of PC (%) (CYP2C9 mRNA; CYP2C9, donor one): 25.6%
fold induction at 48 h, 25 µM (CYP2C9 mRNA; female, human): 1.83
fold induction at 48 h, 25 µM (CYP2C9 mRNA; human three, cryopreserved human hepatocytes (donor four)): 1.52
fold induction at 48 h, 25 µM (CYP2C9 mRNA; male, human, cryopreserved human hepatocytes): 1.53
Enzyme activity Percent of PC (%) (CYP2C19; CYP2C19, donor eight): -3.72%
Enzyme activity Percent of PC (%) (CYP2C19; CYP2C19, donor four): -3.91%
Enzyme activity Percent of PC (%) (CYP2C19; CYP2C19, donor one): 1.83%
fold induction at 48 h, 25 µM (CYP2C19; human three, cryopreserved human hepatocytes, probe S-(+)-mephenytoin (80 µM), CYP2C19, donor eight): 0.87
Enzyme activity Percent of PC (%) (CYP2C9; female, 48 h, 25 µM): 6.88%
fold induction at 48 h, 25 µM (CYP2C9; female): 1.11
Enzyme activity Fold Induction (CYP2C9; male, 48 h, 25 µM): 1.14 fold
fold induction at 48 h, 25 µM (CYP2C9; male): 1.05
Enzyme activity Percent of PC (%) (CYP2C8; female, 48 h, 25 µM): 3.75%
fold induction at 48 h, 25 µM (CYP2C8; female): 1.18
Enzyme activity Fold Induction (CYP2C8; male, 48 h, 25 µM): 1.39 fold
fold induction at 48 h, 25 µM (CYP2C8; male): 1.05
Gene expression Percent of PC (%) (CYP2C8 mRNA; female, 48 h, 25 µM): 15.4%
fold induction at 48 h, 25 µM (CYP2C8 mRNA; female): 1.89
Gene expression Fold Induction (CYP2C8 mRNA; male, 48 h, 25 µM): 0.92 fold
fold induction at 48 h, 25 µM (CYP2C8 mRNA; male): 1.05

CO[C@H]1/C=C/O[C@@]2(C)Oc3c(C)c(O)c4c(O)c(c(/C=N/N5CCN(C)CC5)c(O)c4c3C2=O)NC(=O)/C(C)=C\C=C\[C@H](C)[C@H](O)[C@@H](C)[C@@H](O)[C@@H](C)[C@H](OC(C)=O)[C@@H]1C [Rifampicin, reference compound]
pIC50 (OATP1B3): 6.21
Percentage transported (OATP1B3; human, 5 min, 10 μM, pH 7.4): 0.00%
Uptake rate (OATP1B3; human, 5 min, 10 μM, pH 7.4): 4.46±0.829 pmol/mg protein/min
inhibition at 5 min, 10 µM (OATP1B3; human, pH 7.4): 100%
pIC50 (OATP1B1): 6.06
Percentage transported (OATP1B1; human, 2 min, 10 μM, pH 7.4): 0.00%
Uptake rate (OATP1B1; human, 2 min, 10 μM, pH 7.4): 3.03±0.536 pmol/mg protein/min

C[C@]12CC[C@@H]3c4ccc(OS(=O)(=O)O)cc4CC[C@H]3[C@@H]1CCC2=O [E3S, Estrone-3-sulfate, reference compound]
Papp A-B of E3S (BCRP): 2.79 ×10–^6 cm/s
Papp B-A of E3S (BCRP): 77.8 ×10–^6 cm/s

C[C@H]1O[C@@H](O[C@H]2[C@@H](O)C[C@H](O[C@H]3[C@@H](O)C[C@H](O[C@H]4CC[C@@]5(C)[C@H](CC[C@@H]6[C@@H]5C[C@@H](O)[C@]5(C)[C@@H](C7=CC(=O)OC7)CC[C@]65O)C4)O[C@@H]3C)O[C@@H]2C)C[C@H](O)[C@@H]1O [Digoxin, reference compound]
Papp B→A at 60 min, 5 µM (P-gp): 25 ×10⁻⁶ cm/s

COc1ccc2[nH]c([S+]([O-])Cc3ncc(C)c(OC)c3C)nc2c1 (stereo not drawn) [Omeprazole]
Gene expression Fold Induction (CYP1A2 mRNA; female, 48 h, 50 µM): 25.5 fold
fold induction at 48 h, 50 µM (CYP1A2 mRNA; female): 15.6
fold induction at 48 h, 50 µM (CYP1A2 mRNA; male): 20.3
Enzyme activity Fold Induction (CYP1A2; female, 48 h, 50 µM): 3.37 fold
fold induction at 48 h, 50 µM (CYP1A2; female): 4.95
fold induction at 48 h, 50 µM (CYP1A2; male): 5.22

CC(C)Oc1ccc(-c2nn([C@@H](C)c3oc4ccc(F)cc4c(=O)c3-c3cccc(F)c3)c3ncnc(N)c23)cc1F [umbralisib, Umbralisib]
Vz/F in human [2]: highest Vz/F among these drugs
exposure in the intestines versus plasma [3]: 100 fold
incidence of ≥Grade 3 GI toxicity, including diarrhea and colitis [4]: higher than 10%
